Measurements from US8080522B2, “Polyethlene glycol modifications of thymosin alpha-1” (Institute of Pharmacology and Toxicology Academy of …, priority 2005, dated 2011).

Legend:
[1] = Plasma concentration / pharmacokinetics in mouse (competitive ELISA); assay type: in vivo; conditions: 300 μg per mouse, injected peritoneally, parameters in 24 h; for AUC: n = 3; for Cmax / Tmax: serum, ip, 300 ug/animal; for Cmax: n = 3, read-out: Cmax; for Tmax: n = 3, read-out: Tmax
Description: Coating antigen: Dilute Tα1 detection antigen stock solution to a final concentration of 2 μg/mL with coating solution, and add it into the wells of ELISA plate for 0.1 mL per well, and incubate at 4° C. for 5 days. Then wash the ELISA plate 3 times with washing buffer, each 0.2 mL/well and 3 min/time. Add 0.2 mL blocking buffer to each well, incubate for 1.5 hours at 37° C., wash plate 2 times by washing buffer, and spin dried.
Sample preparation: Weight sample accurately, dissolve it in saline to a concentration of 1.5 mg/mL. Administrate 0.2 Ml by injection to each mouse peritoneally. Collect blood sample in 3 min, 20 min, 40 min, 1 h, 2 h, 3 h, 6 h, 8 h, 12 h, and 24 h. Collect serum by centrifuge the blood samples for 5 minutes at 10000 rpm, stored at −20° C. in a freezer. o prepare test sample, […] was added by 0.1 mL 1:1500 rabbit anti-Tα1 serum (final concentration is 1:6000), and 0.2 mL CD-1® mouse serum, and […]. Prepare blank control at the same time. Total volume is 0.4 mL. Incubate for 2 hours at 37° C. To prepare standard sample, Tα1 0.1 mL with different concentrations from 0.0004 to 400 μg/mL was added by 0.1 mL 1:1500 rabbit anti-Tα1 serum (final concentration is 1:6000), and 0.2 mL CD-1® mouse serum. Prepare blank control at the same time. Total volume is 0.4 mL. Incubate for 2 hours at 37° C.
Sample Testing Add the prepared test sample and standard sample to ELISA plate, 0.1 mL/well, reacting for 1 hour in 37° C. chamber. Wash the plates 3 times, spin dryed. Add substrate 0.1 mL/well for 10 minutes. Add 2 mol/L H2SO4 0.05 mL to each well to terminate the reaction. Measure the OD value at 450 nm. Plot the standard curve with the concentration of Tα1 standard sample as abscissa and OD value as vertical coordinate. Calculate the content of test sample according to this standard curve.

[2] = Half-life in liver homogenate (HPLC); assay type: in vitro ADME; conditions: 37° C., sample 0.4 mg/mL or 0.8 mg/mL, read-out: t1/2 in liver homogenate (converted)
Description: Experimental method: Prepare 0.4 mg/mL or 0.8 mg/mL sample aqueous solution in centrifuge tube, adding 50 μL liver homogenate. Then incubate for different time in 37° C. water bath. Terminate the reaction and precipitate liver homogenate protein by heating the mixture in boiling water for 5 minutes. Centrifuge it (10000 rpm) for 10 minutes. Analyze the supernatant by HPLC. The data was statistically analyzed by Origin Prof. 5.0.
HPLC: Column temperature: 25° C.; Flow rate 1.0 mL/min; Detection wavelength: 200 nm; Mobile phase A: 0.1% TFA/H2O; Mobile phase B: 0.1% TFA/70% CH3CN.

spleen cell = assay: Interferon-γ production of spleen cells stimulated by Con A (double antibody sandwich ELISA); assay type: cell-based; conditions: for Concentration of IFN-γ: Con A 0.5 μg/mL, 24 hours, n = 3; for Enhancement percentage: versus Con A alone
Description: Prepare spleen cell suspension in sterile condition. Adjust cell concentration to 5×10^6 cell/mL by adding RPMI-1640 culture with 20% bovine serum. Add 0.5 mL cell suspension, 0.25 mL Con A (final concentration is 0.5 μg/mL) and 0.25 mL samples with different concentrations in 24-well plate; and add RPMI-1640 culture in control wells. Incubate the plates in a 5% CO2 chamber at 37° C. for 24 hours. Centrifuge and collect supernatant, test the content of IFN-γ in supernatant by double antibody sandwich ELISA. The protocol is according to the instruction on ELISA kit.

[3] = tested on: T lymphocyte (spleen cell); assay: T lymphocyte proliferation stimulated by Con A (3H-TdR incorporation); assay type: cell-based, mouse; conditions: for 3H-TdR incorporation (cpm, x ± SD): Con A 0.5 μg/mL, 72 hours, n = 4; for Enhancement percentage: versus Con A alone
Description: Sacrifice mouse by draining artery blood, remove spleen in sterile condition, and make it to spleen cell suspension. After red blood cell lysis, wash for 3 times, and stain with Trypan Blue to count the living cells. The amount of living cells should be more than 95%. Dilute the cell concentration to 5×10^6 cell/mL by adding RPMI-1640 culture with 10% bovine serum. Add spleen cell suspension to a sterilized 96-well plate for 100 μL per well. The total amount is 200 μL per well (including 50 μL Con A and 50 μL medicament). Each sample concentration is repeated fro 3-4 wells. Incubate the plate in a 5% CO2 chamber for 72 hours, add 10 μci/mL ^3H-TdR 20 μL per well 16 hours before termination of the incubation, giving rise to a final concentration of 1.0 μci (37.0 KBq)/mL. Collect cells on filter membrane by using Herveste 96 cell harvester, dried in 80° C. oven for 20 minutes or dried in air. Put the dried filter membrane into 1450-423 microBeta sample bag, add scintillation liquid, and measure radioactivity (cpm) in Perkin Elmer MicroBeta Trilux 1450 Scintillation Counter.

Substance | AUC [1] [ng·h/mL] | Cmax [1] [ng/mL] | Tmax [1] [min] | half-life [2] [min] | 3H-TdR incorporation (cpm, x ± SD) ([3]; Table 2-1, sample 10 μg/mL) [cpm] | Enhancement percentage ([3]; Table 2-1, sample 10 μg/mL) | 3H-TdR incorporation (cpm, x ± SD) ([3]; Table 2-1, sample 50 μg/mL) [cpm] | Enhancement percentage ([3]; Table 2-1, sample 50 μg/mL) | Concentration of IFN-γ (spleen cell; Table 1-2, sample 1 μg/mL) [pg/mL] | Enhancement percentage (spleen cell; Table 1-2, sample 1 μg/mL) | Concentration of IFN-γ (spleen cell; Table 1-2, sample 10 μg/mL) [pg/mL] | Enhancement percentage (spleen cell; Table 1-2, sample 10 μg/mL) | Concentration of IFN-γ (spleen cell; Table 1-2, sample 100 μg/mL) [pg/mL] | Enhancement percentage (spleen cell; Table 1-2, sample 100 μg/mL) | 3H-TdR incorporation (cpm, x ± SD) ([3]; Table 2-2, sample 10 μg/mL) [cpm] | Enhancement percentage ([3]; Table 2-2, sample 10 μg/mL) | 3H-TdR incorporation (cpm, x ± SD) ([3]; Table 2-2, sample 50 μg/mL) [cpm] | Enhancement percentage ([3]; Table 2-2, sample 50 μg/mL) | 3H-TdR incorporation (cpm, x ± SD) ([3]; Table 2-2, sample 100 μg/mL) [cpm] | Enhancement percentage ([3]; Table 2-2, sample 100 μg/mL) | further results
Ac-SDAAVDTSSEITTKDLCEKKEVVEEAEN-OH [BMJBT005] | 6110 | 3650 | 20 | 168 | 22237 ± 5551 | +64.9% | 22413 ± 1436 | +66.2% | – | – | – | – | – | – | – | – | – | – | – | – | Concentration of IFN-γ (spleen cell; Table 1-1, sample 1 μg/mL): 1822.2 ± 24.3 pg/mL; Enhancement percentage (spleen cell; Table 1-1, sample 1 μg/mL): +142.4%; Concentration of IFN-γ (spleen cell; Table 1-1, sample 10 μg/mL): 1706.5 ± 139.3 pg/mL; Enhancement percentage (spleen cell; Table 1-1, sample 10 μg/mL): +127.0%; Concentration of IFN-γ (spleen cell; Table 1-1, sample 100 μg/mL): 906.9 ± 10.7 pg/mL; Enhancement percentage (spleen cell; Table 1-1, sample 100 μg/mL): +20.6%; 3H-TdR incorporation (cpm, x ± SD) ([3]; Table 2-1, sample 100 μg/mL): 17551 ± 2491 cpm; Enhancement percentage ([3]; Table 2-1, sample 100 μg/mL): +30.1%
Ac-SDAAVDTSSEITTKDLKEKKCVVEEAEN-OH [BMJBT006] | 12800 | 11500 | 20 | 156 | 21152 ± 2936 | +56.8% | 19880 ± 1777 | +47.4% | – | – | – | – | – | – | – | – | – | – | – | – | 3H-TdR incorporation (cpm, x ± SD) ([3]; Table 2-1, sample 100 μg/mL): 14319 ± 2333 cpm; Enhancement percentage ([3]; Table 2-1, sample 100 μg/mL): +6.2%
Ac-SDAAVDTSSECTTKDLKEKKEVVEEAEN-OH [BMJBT003] | 8710 | 5650 | 20 | 168 | – | – | – | – | 3428.6 ± 111.9 | +5.2% | 3732.2 ± 30.2 | +14.5% | 3990.8 ± 250.0 | +22.5% | 21825 ± 2216 | +87.5% | 20465 ± 2432 | +77.3% | 15240 ± 2369 | +30.9% | –
Ac-SDAAVDTSSEITTKDCKEKKEVVEEAEN-OH [BMJBT004] | 8760 | 4940 | 20 | 48 | – | – | – | – | 3671.1 ± 86.0 | +12.7% | 3216.1 ± 228.6 | −1.3% | 3565.9 ± 77.8 | +0.5% | – | – | – | – | – | – | –
Ac-SDAAVDTCSEITTKDLKEKKEVVEEAEN-OH [BMJBT002] | 2440 | 1860 | 20 | 126 | – | – | – | – | – | – | – | – | – | – | 23881 ± 2809 | +105.1% | 19611 ± 2612 | +68.5% | 11956 ± 1555 | +2.6% | –
Ac-SDAACDTSSEITTKDLKEKKEVVEEAEN-OH [BMJBT001] | 3090 | 448 | 20 | 228 | – | – | – | – | 3000.5 ± 56.1 | −7.9% | 3584.2 ± 31.6 | +10.0% | 3618.5 ± 93.8 | +11.0% | 19289 ± 4456 | +65.7% | 19972 ± 3287 | +71.6% | 21119 ± 5339 | +81.4% | –
